Measured values reported in BindingDB's records for patent US12570607 (CSPC Zhongqi Pharmaceutical Technology (Shijiazhuang) Co., 2026).

Key:
Experiment in all cases: Inhibitory Effect Assay
[1] = target: Cyclin-dependent kinase 6 (Homo sapiens, UniProt Q00534)
Description: (§1) A compound dissolved in DMSO (50 nL) was transferred to the kinase reaction plate by using acoustic technology (Echo). 5 μL of a CDK kinase dilution solution was added to the kinase reaction plate and incubated at room temperature for 10 minutes after centrifugation. 5 μL of a substrate premix solution was added to the plate, and the final concentrations of the substrate and the ATP in each well were shown in Table 1. After centrifugation, the reaction was performed at 30° C. for 120 minutes.

[2] = target: Cyclin-dependent kinase 2 (Homo sapiens, UniProt P24941)
Description: as §1

[3] = target: Cyclin-dependent kinase 5 (Homo sapiens, UniProt Q00535)
Chain of Cyclin-dependent kinase 5 (Q00535 whole entry): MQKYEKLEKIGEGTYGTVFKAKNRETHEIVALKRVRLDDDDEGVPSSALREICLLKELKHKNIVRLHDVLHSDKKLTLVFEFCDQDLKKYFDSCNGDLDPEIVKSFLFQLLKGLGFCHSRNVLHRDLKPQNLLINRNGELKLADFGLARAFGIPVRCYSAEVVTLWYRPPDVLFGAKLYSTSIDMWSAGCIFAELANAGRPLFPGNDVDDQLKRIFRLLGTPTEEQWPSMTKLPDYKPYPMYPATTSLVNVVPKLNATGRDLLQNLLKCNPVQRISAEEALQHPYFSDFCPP
Description: as §1

[4] = target: Cyclin-dependent kinase 9 (Homo sapiens, UniProt P50750)
Chain of Cyclin-dependent kinase 9 (P50750 whole entry): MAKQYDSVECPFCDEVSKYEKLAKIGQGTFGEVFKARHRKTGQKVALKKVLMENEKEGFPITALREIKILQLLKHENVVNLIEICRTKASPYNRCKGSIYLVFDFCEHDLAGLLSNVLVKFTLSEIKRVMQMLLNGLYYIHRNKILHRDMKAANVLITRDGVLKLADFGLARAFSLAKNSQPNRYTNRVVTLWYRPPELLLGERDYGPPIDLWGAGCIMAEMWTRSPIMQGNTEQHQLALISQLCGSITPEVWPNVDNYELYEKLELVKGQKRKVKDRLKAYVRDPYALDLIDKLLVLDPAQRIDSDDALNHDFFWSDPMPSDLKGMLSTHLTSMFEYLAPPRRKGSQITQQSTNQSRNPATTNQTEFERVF
Description: as §1

[5] = target: Cyclin-dependent kinase 7 (Homo sapiens, UniProt P50613)
Chain of Cyclin-dependent kinase 7 (P50613 whole entry): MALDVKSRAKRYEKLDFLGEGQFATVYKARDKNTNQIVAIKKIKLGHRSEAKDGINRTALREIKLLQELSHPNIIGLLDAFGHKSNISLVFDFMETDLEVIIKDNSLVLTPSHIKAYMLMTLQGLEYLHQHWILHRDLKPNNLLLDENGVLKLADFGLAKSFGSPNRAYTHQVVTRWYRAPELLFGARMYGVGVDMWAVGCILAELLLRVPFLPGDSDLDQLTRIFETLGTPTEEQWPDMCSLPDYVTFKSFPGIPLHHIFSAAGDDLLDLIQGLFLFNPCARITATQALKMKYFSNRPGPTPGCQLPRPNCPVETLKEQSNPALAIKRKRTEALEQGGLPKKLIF
Description: as §1

[6] = target: Cyclin-dependent kinase 1 (Homo sapiens, UniProt P06493)
Chain of Cyclin-dependent kinase 1 (P06493 whole entry): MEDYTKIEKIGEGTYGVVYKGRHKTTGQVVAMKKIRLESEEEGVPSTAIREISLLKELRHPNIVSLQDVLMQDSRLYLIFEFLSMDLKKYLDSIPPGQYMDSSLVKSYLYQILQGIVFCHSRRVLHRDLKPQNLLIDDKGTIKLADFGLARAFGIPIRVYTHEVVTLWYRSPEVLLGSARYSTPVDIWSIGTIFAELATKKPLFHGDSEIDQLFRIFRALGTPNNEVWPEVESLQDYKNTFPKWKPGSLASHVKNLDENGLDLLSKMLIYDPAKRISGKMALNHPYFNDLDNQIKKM
Description: as §1

[7] = target: Cyclin-dependent kinase 4 (Homo sapiens, UniProt P11802)
Chain of Cyclin-dependent kinase 4 (P11802 whole entry): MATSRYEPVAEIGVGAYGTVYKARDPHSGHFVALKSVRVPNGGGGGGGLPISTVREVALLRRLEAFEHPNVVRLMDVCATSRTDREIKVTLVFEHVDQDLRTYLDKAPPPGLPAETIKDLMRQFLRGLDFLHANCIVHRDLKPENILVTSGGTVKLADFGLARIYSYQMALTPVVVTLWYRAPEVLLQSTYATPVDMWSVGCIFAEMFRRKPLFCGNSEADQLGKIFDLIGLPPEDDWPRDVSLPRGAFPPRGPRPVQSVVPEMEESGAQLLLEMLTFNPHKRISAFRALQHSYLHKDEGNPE
Description: as §1

Chain of Cyclin-dependent kinase 6 (Q00534 whole entry): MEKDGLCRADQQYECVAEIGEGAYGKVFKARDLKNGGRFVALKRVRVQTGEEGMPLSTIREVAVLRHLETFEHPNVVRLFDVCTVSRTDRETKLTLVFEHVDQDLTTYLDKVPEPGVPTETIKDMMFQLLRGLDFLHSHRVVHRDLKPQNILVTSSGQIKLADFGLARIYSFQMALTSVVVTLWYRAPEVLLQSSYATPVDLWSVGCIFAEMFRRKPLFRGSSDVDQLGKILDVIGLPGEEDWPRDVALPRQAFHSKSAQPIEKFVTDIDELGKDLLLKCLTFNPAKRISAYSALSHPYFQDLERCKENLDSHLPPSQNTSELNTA

| Compound | IC50 [1] | IC50 [2] | IC50 [3] | IC50 [4] | IC50 [5] | IC50 [6] | IC50 [7] |
| --- | --- | --- | --- | --- | --- | --- | --- |
| COc1cc(F)ccc1-c1cc(NC(=O)C2CCCC(NC(C)=O)C2)ncc1F (stereo unspecified) [US12570607, Example 3] | 1390 nM | 2120 nM | 721 nM | 16.8 nM | 6210 nM | 262 nM |  |
| COc1ccccc1-c1cc(NC(=O)[C@H]2CCC[C@@H](NC(C)=O)C2)ncc1F [US12570607, Example 17] | 3170 nM | 1440 nM | 357 nM | 7.12 nM | 5480 nM | 193 nM | 474 nM |
| COc1cc(F)ccc1-c1cc(NC(=O)[C@H]2CCC[C@@H](NS(C)(=O)=O)C2)ncc1F [US12570607, Example 25] | 2360 nM | 2050 nM | 716 nM | 7.54 nM | 4360 nM | 265 nM | 811 nM |
| COC(=O)N[C@@H]1CCC[C@H](C(=O)Nc2cc(-c3ccc(F)cc3OC)c(F)cn2)C1 [US12570607, Example 36] | 3370 nM | 558 nM | 209 nM | 6.88 nM | 3720 nM | 97 nM | 630 nM |
| CNC(=O)N[C@@H]1CCC[C@H](C(=O)Nc2cc(-c3ccc(F)cc3OC)c(F)cn2)C1 [US12570607, Example 37] | 2640 nM | 688 nM | 248 nM | 6.44 nM |  | 82 nM | 361 nM |
| COc1cc(F)ccc1-c1cc(NC(=O)[C@H]2CCC[C@@H](NC(=O)Nc3cc(C)no3)C2)ncc1F [US12570607, Example 41] | 4980 nM | 1250 nM | 361 nM | 7.65 nM | 1080 nM | 196 nM | 629 nM |
| COc1cc(F)ccc1-c1cc(NC(=O)[C@H]2CCC[C@@H](NC(=O)C(F)(F)F)C2)ncc1F [US12570607, Example 42] | 1010 nM | 253 nM | 140 nM | 6.66 nM |  | 72.6 nM | 184 nM |

Further molecules by falling IC50 [1], results first:

| IC50 [1] | IC50 [2] | IC50 [3] | IC50 [4] | IC50 [5] | IC50 [6] | IC50 [7] | Compound |
| --- | --- | --- | --- | --- | --- | --- | --- |
| 3630 nM |  | 301 nM | 6.84 nM | 2150 nM | 133 nM | 767 nM | COc1cc(F)ccc1-c1cc(NC(=O)[C@H]2CCC[C@@H](NC(=O)[C@H](C)O)C2)ncc1F [US12570607, Example 48] |
| 3080 nM | 823 nM | 296 nM | 7.17 nM | 2410 nM | 80 nM | 582 nM | COc1cc(F)ccc1-c1cc(NC(=O)[C@H]2CCC[C@@H](NC(=O)c3ccccn3)C2)ncc1F [US12570607, Example 43] |
| 2790 nM | 564 nM | 284 nM | 6.92 nM | 4440 nM | 93.2 nM | 785 nM | COc1cc(F)ccc1-c1cc(NC(=O)[C@H]2CCC[C@@H](NC(=O)CO)C2)ncc1F [US12570607, Example 45] |
| 2450 nM | 1070 nM | 329 nM | 6.86 nM | 1650 nM | 86.7 nM | 353 nM | COc1cc(F)ccc1-c1cc(NC(=O)[C@H]2CCC[C@@H](NC(=O)CC#N)C2)ncc1F [US12570607, Example 32] |
| 2030 nM | 274 nM | 162 nM | 5.55 nM | 2630 nM | 73.6 nM | 402 nM | COc1cc(F)c(F)cc1-c1cc(NC(=O)[C@H]2CCC[C@@H](NC(=O)CO)C2)ncc1F [US12570607, Example 68] |
| 1770 nM | 991 nM | 614 nM | 7.21 nM | > 9900 nM | 214 nM | 273 nM | CC(=O)N[C@@H]1CCC[C@H](C(=O)Nc2cc(-c3ccc(F)cc3OC(C)C)c(F)cn2)C1 [US12570607, Example 8] |
| 1760 nM | 761 nM | 168 nM | 6.68 nM | 1260 nM | 78.8 nM | 395 nM | COc1cc(F)ccc1-c1cc(NC(=O)[C@H]2CCC[C@@H](NC(=O)C3(C#N)CC3)C2)ncc1F [US12570607, Example 33] |
| 1120 nM | 475 nM |  | 7.9 nM | 2750 nM |  | 429 nM | COc1cc(F)ccc1-c1cc(NC(=O)[C@H]2CCC[C@@H](NC(C)=O)C2)ncc1F [US12570607, Example 5] |
| 600 nM | 392 nM | 82.9 nM | 5.45 nM | 1420 nM |  | 268 nM | COc1cc(F)c(F)cc1-c1cc(NC(=O)[C@H]2CCC[C@@H](NC(=O)C3(C#N)CC3)C2)ncc1F [US12570607, Example 67] |
| 297 nM | 638 nM |  | 7.65 nM | 1170 nM | 87.1 nM | 196 nM | CC(=O)N[C@@H]1CCC[C@H](C(=O)Nc2cc(-c3cccc4ccoc34)c(F)cn2)C1 [US12570607, Example 19] |
